# Assays:
# [1] = tested on: SS-DNA (salmon sperm DNA); assay: DNA binding study by viscometry; settings: SS-DNA 87.72 μM, compound 5–30 μM, Ostwald viscometer
# Protocol: The viscosity of the SS-DNA solution (87.72 μM) in the absence and the presence of complexes 1 and 2 (5–30 μM) was measured using an Ostwald viscometer. For accuracy, the readings were made in triplicate for each sample, and then an average flow rate was calculated. Data are presented as (η/ηo)^1/3 vs. binding ratio ® of [complex]/[DNA], where η is the relative viscosity of the complex-DNA adduct, and ηο is the relative viscosity of DNA alone. The relative viscosity values for SS-DNA in the presence (η) and the absence (ηο) of the complexes were calculated using the relation η = (t − to)/to, where t is the observed flow time in seconds.
# [2] = DPPH free radical scavenging assay; settings: for IC50: DPPH radical scavenging, read-out: IC50 (µM) ± SEM; for % Inhibition: DPPH
# Protocol: (§1) DPPH and hydroxyl (•OH) radical scavenging assays based on spectroscopic measurements are simple in vitro methods used to evaluate the antioxidant potential of test compounds. The promising results of these assays could be exploited as preliminary tests in search of drugs with potential anticancer, anti-aging, and anti-inflammatory activities. Within this context, the abilities of the free ligand acid (HL) and synthesized complexes (1 and 2) to scavenge DPPH and hydroxyl radicals were determined in order to evaluate their potential antioxidant ability compared to that of vitamin C as a reference compound.
# The in vitro DPPH free radical scavenging activities of the free ligand acid and complexes 1 and 2 were assessed, as per a reported procedure with slight modification in the protocol.
# Different concentrations (15, 30, 60, 120, and 240 μM) of the free ligand acid and complexes were mixed with 1000 μL of 255 μM DPPH solution made in ethanol. The mixture solutions were shaken and incubated in the dark for 30 min at room temperature. The absorbance of the solutions was measured at 518 nm using a UV-VIS spectrophotometer. Ascorbic acid of fixed concentration was used as a positive control. The readings were made in triplicate. Percentage inhibition of the test compounds was evaluated by using the formula: %scavenging=Ac−As/Ac×100 where Ac and As are the observed absorbance values of the control and the sample, respectively.
# α-amylase = α-amylase enzyme inhibition assay; type: biochemical, Saccharomyces cerevisiae; settings: for IC50: α-amylase inhibition
# Protocol: A reported protocol with slight modification was used to perform the α-amylase enzyme inhibition assay. A stock solution (1 unit/mL) was prepared by dissolving α-amylase solution from Saccharomyces cerevisiae in 50 mM potassium phosphate buffer (pH 6.8), and for the substrate, in the same buffer 20 mM p-nitrophenyl-α-D-glucopyranoside (PNG) was prepared. The assay was conducted in triplicate using 96-well plates. […] For the experiments, each well contained phosphate buffer 65 μL (50 mM, pH 6.8), PNG 25 μL, α-amylase enzyme 5 μL (0.05 U/mL), and test sample 5 μL. The plates were allowed to incubate at 37 °C for 30 min, followed by the addition of 100 μL sodium bicarbonate (0.5 mM) as a stopping agent.
# By using a microplate reader (BioTek Elx-800, Winooski, VT, USA), absorbance was recorded at 405 nm. The percent inhibition was calculated using the formula: %Inhibition=Acontrol−Asample/Acontrol × 100 where Acontrol is the control absorbance and Asample is the sample absorbance.
# [3] = tested on: SS-DNA (salmon sperm DNA); assay: DNA binding study by UV-visible absorption spectroscopy; settings: complex-DNA interaction, calculated
# Protocol: UV-visible absorption measurements can be used to monitor changes occurring in λmax values (red or blue shifts) and absorption intensity (hyper- or hypochromism) of either a test compound or DNA as a result of any possible interaction. These changes can be used to find some details about the mode of interaction of metal complexes with DNA [25]. In the present study, absorption titrations were made with a fixed concentration (200 μM) of complexes against varying concentrations (5-30 μM) of SS-DNA. The extent of complex-DNA binding was assessed by calculating intrinsic binding constant (Kb) values using the well-known Benesi-Hildebrand equation [26]. Ao/A-A0=ε[…]+1/Kb[DNA] where Kb is the binding constant, A is the absorbance of complex-DNA adduct, Ao is the absorbance of pure complex solution, [DNA] is the concentration of SS-DNA in mol/L, εH-G is the molar absorption co-efficient of each complex-DNA adduct, and εG is the molar absorption co-efficient of pure complex. […] Ao/A-Ao along the ordinate, as shown in Figure 3B and Figure 4B for complexes 1 and 2, respectively. […] The SS-DNA solution (ε = 6600 M^-1 cm^-1 at 260 nm) concentration was determined via absorption spectroscopy. The complex solutions (200 μM) were made in aqueous DMSO (1:4). […] To eliminate the absorbance of DNA, equivalent SS-DNA solutions were added to the complex and reference solutions. […]
# [4] = Hydroxyl radical scavenging assay; settings: for IC50: hydroxyl radical scavenging, read-out: IC50 (µM) ± SEM; for % Inhibition: hydroxyl radical
# Protocol: as §1
# The hydroxyl radical scavenging activities of the free ligand acid and synthesized complexes (1 and 2) were evaluated according to a reported method. Different concentrations (15, 30, 60, 120, and 240 μM) of the free ligand acid and complexes were mixed with 0.4 M phosphate buffer (pH 6.6) (1000 μL), 0.1% hydrogen peroxide (100 μL), 3.7 mM o-phenanthroline (200 μL), and 7.5 mM ferrous sulfate (100 μL). The mixtures were diluted with distilled water to 3000 μL before incubating for 30 min at room temperature. The absorbance of mixtures was recorded at 510 nm using ascorbic acid as a standard.
# The %scavenging was calculated using the following formula: %scavenging=As−Ac/Ab−As×100 where As, Ac, and Ab are the observed absorbance values of the sample, control, and blank, respectively.
Structure (SMILES),effect on the relative viscosity of the DNA [1],IC50 [2] [µM],% Inhibition ([2]; dose conc. 15 µM) [%],% Inhibition ([2]; dose conc. 30 µM) [%],% Inhibition ([2]; dose conc. 60 µM) [%],% Inhibition ([2]; dose conc. 120 µM) [%],% Inhibition ([2]; dose conc. 240 µM) [%],% α-Amylase Activity (α-amylase; concentration 31.25 µg/mL) [%],% α-Amylase Activity (α-amylase; concentration 62.5 µg/mL) [%],% α-Amylase Activity (α-amylase; concentration 125 µg/mL) [%],% α-Amylase Activity (α-amylase; concentration 250 µg/mL) [%],% α-Amylase Activity (α-amylase; concentration 500 µg/mL) [%],IC50 (α-amylase) [µg/mL],ΔG [3] [kcal/mol],IC50 [4] [µM],% Inhibition ([4]; dose conc. 15 µM) [%],% Inhibition ([4]; dose conc. 30 µM) [%],% Inhibition ([4]; dose conc. 60 µM) [%],% Inhibition ([4]; dose conc. 120 µM) [%],% Inhibition ([4]; dose conc. 240 µM) [%]
"Cc1cccnc1.Cc1cccnc1.O=C([O-])Cc1ccc(F)c(F)c1.O=C([O-])Cc1ccc(F)c(F)c1.O=C([O-])Cc1ccc(F)c(F)c1.O=C([O-])Cc1ccc(F)c(F)c1.[Cu+2].[Cu+2] [complex 2, [Cu2(3,4-F2C6H3CH2COO)4(3-CH3py)2]]",pronounced increase,365 ± 5.31,4.045,5.150,14.975,21.500,32.550,5.33,8.33,20.46,38.00,50.30,455.32,-7.808,308 ± 6.89,0.04,1.30,14.50,25.00,35.99
"C[C@H]1O[C@H](O[C@H]2[C@H](O)[C@@H](O)[C@@H](O[C@H]3[C@H](O)[C@@H](O)C(O)O[C@@H]3CO)O[C@@H]2CO)[C@H](O)[C@@H](O)[C@@H]1N[C@H]1C=C(CO)[C@@H](O)[C@H](O)[C@H]1O (stereo partly shown) [Acrabose, acarbose, reference compound]",,,,,,,,14.34,26.42,46.39,68.61,84.33,,,,,,,,
"O=C(O)Cc1ccc(F)c(F)c1 [HL, 3,4-difluorophenylacetic acid]",no effect,1010 ± 1.99,1.09,3.05,5.07,7.77,12.55,1.72,1.9,9.22,19.67,32.95,728.17,,1771 ± 1.17,0.009,1.050,1.070,2.770,6.660
"O=C1O[C@H]([C@@H](O)CO)C(O)=C1O [Vit. C, ascorbic acid, reference compound]",,127 ± 14,7.09,15.09,29.98,58.09,82.35,,,,,,,,162 ± 12.1,6.78,10.49,16.87,43.87,70.55
"Cc1ccccn1.Cc1ccccn1.O=C([O-])Cc1ccc(F)c(F)c1.O=C([O-])Cc1ccc(F)c(F)c1.O=C([O-])Cc1ccc(F)c(F)c1.O=C([O-])Cc1ccc(F)c(F)c1.[Cu+2].[Cu+2] [complex 1, [Cu2(3,4-F2C6H3CH2COO)4(2-CH3py)2]]",pronounced increase,214 ± 7.77,8.07,15.77,25.39,39.00,51.12,6.03,7.24,22.24,41.12,51.22,437.73,-6.979,283 ± 7.01,0.05,10.00,15.04,28.32,39.99

# Source: PMC10610105, “Designing and Exploration of the Biological Potentials of Novel Centrosymmetric Heteroleptic Copper(II) Carboxylates” (Pharmaceuticals, 2023)
